In patent US8129383B2, “Aminopterin dosage forms and methods for inflammatory disorders” (Aminopterin LLC, priority 2005, dated 2012):

Legend:
[1] = system: neutrophils that accumulated in the carrageenan-treated air pouches
Method: J. Clin. Invest., 1993. 92(6):2675-82].
A separate group of 5 animals was given vehicle by ip injection on the same days (0.9% saline, control, n=5). On day 16, air pouches were induced on the animals by injecting 3 ml of air subcutaneously on the back. On day 22 (i.e. one day after the last dose of drug or vehicle), inflammation was induced by injection of 1 ml of a suspension of carrageenan (2% weight/volume in calcium- and magnesium-free PBS). The mice were put back in their cages and allowed to run free for 4 hours. […] After 4 hours, the animals were sacrificed, the pouches flushed with 2 ml of PBS and the exudates harvested. Aliquots were diluted 1:1 with methylene blue (0.01% w/v in PBS), and the cells were counted.

psoriasis = settings: 329 patients, schedules of the 1955 study; cited from earlier work
canine atopic dermatitis = system: canine atopic dermatitis
Method: […] Subjects were assessed at baseline and at weeks 2 and 4 of the trial, and every other week of the 1-year extension phase.
Subjects were assessed at baseline and at weeks 2 and 4.

[2] = molecular target: T1, partially purified chicken liver DHFR (Gallus gallus, UniProt P00378); test: radioligand DHFR binding assay
T1 sequence (P00378 1-189): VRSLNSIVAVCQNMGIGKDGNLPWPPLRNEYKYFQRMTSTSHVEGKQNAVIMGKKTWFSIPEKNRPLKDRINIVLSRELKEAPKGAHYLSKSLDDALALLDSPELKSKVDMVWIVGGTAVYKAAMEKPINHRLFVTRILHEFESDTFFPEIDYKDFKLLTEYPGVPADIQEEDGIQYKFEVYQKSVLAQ
Method: 16:1458, 1998]. […] After the standard curve is established, a portion of the 200 μM supernatant prepared above for an aminopterin tablet is further diluted 10,000 using two serial 100-fold dilutions with water to provide an approximately 20 nM solution of aminopterin. The DHFR assay is performed with 100 μL of the 20 nM solution, as well as several 2-fold serial dilutions, and the result expressed as pmol/ml aminopterin. The total number of pmol of aminopterin is calculated using the relationship, pmol/ml×10,000×11.35. The total number of mg in the tablet is then calculated using the relationship, total pmol×(10^−6 μmole/pmol)×0.44 mg/μmole.

active and passive EAE = test: rat EAE animal model of multiple sclerosis; type: in vivo
Method: Using the rat EAE animal model of multiple sclerosis, a series of prophetic studies are performed wherein aminopterin is given to animals using both active and passive protocols for inducing EAE (Burton, Agents and Actions (1989) 27 (3/4): 351-355). In the active protocol, animals are intradermally injected with myelin basic protein (MBP), Freund's adjuvant and mycobacteria, whereas in the passive protocol separate donor rats are immunized actively and then 10-12 days after active immunization, donor splenocytes are collected and stimulated […] with MBP for 3 days, then 1−2×10^8 leukocytes injected iv into each irradiated (600 rads) recipient rat. Aminopterin at doses of 0.0005, 0.001, 0.002, 0.005, 0.008, 0.010, 0.050, 0.1 and 0.5 mg/kg are administered ip on the day after active or passive sensitization.

[3] = storage of aqueous compositions; type: physicochemical; settings: six months of storage; water converts aminopterin to folic acid
Source text: Because of their ease of administration, tablets and capsules represent the most advantageous oral dosage form in adults, in which case solid pharmaceutical carriers are employed. If desired, tablets may be coated by standard aqueous or nonaqueous techniques. The parenteral dosage form can consist of a sterile solution of the active ingredient, either in its free or salt form, in physiological buffer or sterile water. In addition, parenteral solutions can contain preservatives such as benzalkonium chloride, methyl- or propyl-paraben and chlorobutanol. Suitable pharmaceutical carriers are described in Remington's Pharmaceutical Sciences, a standard reference text in this field. […] Accordingly, such aqueous compositions are best stored desiccated and hydrated within several hours to several days prior to patient administration.

[4] = system: influx of neutrophils (PMNs) in hyperoxia; test: rat oxygen-toxicity model of bronchopulmonary dysplasia; type: in vivo, rats; settings: single 0.2 mg/kg ip injection day 2 after birth, 95% oxygen, sacrifice day 8
Source text: Mason, S, N.; Richard L. Auten, J. Lung inflammation in hyperoxia can be prevented by antichemokine treatment in newborn rats. American Journal of Respiratory Critical Care Medicine 2000, 162, 2316-2323]. […] Litter sizes were the same. […] Dams were rotated daily between air and oxygen cages to avoid maternal oxygen toxicity. On day 8, the pups were weighed and then euthanized, tracheas are cannulated and the pulmonary artery is perfused with saline. Bronchoalveolar lavage fluid (BALF) was then obtained for cell count and chemokine analysis (FIG. 3). The lungs were removed and snap frozen for myeloperoxidase activity assay (neutrophil accumulation within lung parenchyma) and 8-isoprostane, a marker of lipid oxidation. The pulmonary artery was perfused and the lungs were inflation-fixed with buffered formalin at 25 cm H2O.

[5] = system: carrageenan-induced inflammation in air pouches; test: duration of efficacy in the murine air-pouch model after cessation of 4 weeks of dosing; type: in vivo, mice; settings: aminopterin 0.05 mg/kg, methotrexate 1.0 mg/kg
Method: We therefore examined the rate at which anti-inflammatory activity was lost in the air-pouch model after the cessation of 4 weeks of dosing at the maximally efficacious dose (FIG. 2).
On day 25 the air pouches were re-inflated with 1.5 ml of air. Pouches were re-inflated as needed to maintain them.

Nc1nc(N)c2nc(CNc3ccc(C(=O)N[C@@H](CCC(=O)O)C(=O)O)cc3)cnc2n1 [aminopterin, 4-amino-pteroyl-L-glutamic acid]
potency relative to methotrexate ([1]; ratio of EC50s, P<0.001): 43 fold
signs of toxicity at the end of the dosing period ([1]; weekly ip doses, aminopterin 0.0005-0.050 mg/kg, methotrexate 0.01-1.00 mg/kg): no signs of toxicity
EC50 for diminishing the number of neutrophils accumulated in carrageenan-treated air pouches ([1]; weekly ip injection days 1, 7, 14, 21, carrageenan day 22, exudate after 4 hours): 0.0009 mg/kg/wk
overall incidence of toxicity (psoriasis): 21%
median improvement from baseline in PVAS score (canine atopic dermatitis; 5 dogs, oral 0.01 mg/kg/week, 4 weeks, range −4 to +2): −4
median improvement from baseline in CADESI score (canine atopic dermatitis; 5 dogs, oral 0.01 mg/kg/week, 4 weeks, range −11 to −91%): −59%
median improvement from baseline in composite CADESI×pruritis score (canine atopic dermatitis; 5 dogs, oral 0.01 mg/kg/week, 4 weeks, range −97 to +24%): −60%
clinical evidence of hematologic (CBC) or liver toxicity (LFTs) (canine atopic dermatitis; dogs treated up to 20 weeks at 0.01 mg/kg/week): no clinical evidence of hematologic (CBC) or liver toxicity (LFTs)
overall evaluation of efficacy by owners (canine atopic dermatitis; median score 2, range 1 to 4, oral 0.01 mg/kg/week, 4 weeks): fair (fair (25-50%))
overall evaluation of efficacy by clinicians (canine atopic dermatitis; median score 2, range 1 to 5, oral 0.01 mg/kg/week, 4 weeks): fair (fair (25-50%))
displacement of 3H-methotrexate and binding to DHFR, aminopterin vs methotrexate [2]: equivalent
persistence of inhibition after the single dose (active and passive EAE; active or passive EAE): up to 14 days
dose-response over the range of doses (active and passive EAE; sensitized actively or passively): clear dose-response
inhibition of the onset of active EAE (active and passive EAE; single ip dose (0.0005-0.5 mg/kg) day after active sensitization, one or more of the doses): greater than 80%
inhibition of the onset of passive EAE (active and passive EAE; single ip dose (0.0005-0.5 mg/kg) day after passive sensitization, one or more of the doses): greater than 80%
stability of parenteral, oral liquid or other aqueous compositions [3]: accumulate folic acid to undesirable levels
number of neutrophils in bronchoalveolar lavage fluid [4]: statistically significant reduction
difference between aminopterin and methotrexate in rate of recovery of inflammation ([5]; 8, 12 or 22 days after last of 4 weekly ip doses): no statistically significant difference
duration of action ([5]; after last of 4 weekly ip doses): quite long
